Measurements published in patent publication US11571420B2 (priority 2018, dated 2023).

Molecular target: hADORA1/CHO (hA1 expressing) cells (Homo sapiens (Human), UniProt P30542)
Assay: FLIPR calcium inhibition assay in hADORA1/CHO (hA1 expressing) cells, 10 M adenosine
Format: cell-based
Details: read-out: cAMP & FLIPR IC50 (nM) hA1
Description: hADORA1/CHO (hA1 expressing) cells (Genscript) were plated at 1×10^4 cells/well into 384-well polystyrene plates one day before starting the experiment. On the day of experiment, the supernatant was discard and replaced with 40 μL of dye (FLIPR calcium 5 Assay Kit) per well and the plates were incubated for 60 mins at 37° C. plus 5% CO2. Then testing compounds were added at different concentrations for FLIPR™ inhibition assay. After a 400 s incubation with compound, […] adenosine was added into the cells, and the signal was captured by FLIPR.

Sequence of hADORA1/CHO (hA1 expressing) cells (P30542 whole entry): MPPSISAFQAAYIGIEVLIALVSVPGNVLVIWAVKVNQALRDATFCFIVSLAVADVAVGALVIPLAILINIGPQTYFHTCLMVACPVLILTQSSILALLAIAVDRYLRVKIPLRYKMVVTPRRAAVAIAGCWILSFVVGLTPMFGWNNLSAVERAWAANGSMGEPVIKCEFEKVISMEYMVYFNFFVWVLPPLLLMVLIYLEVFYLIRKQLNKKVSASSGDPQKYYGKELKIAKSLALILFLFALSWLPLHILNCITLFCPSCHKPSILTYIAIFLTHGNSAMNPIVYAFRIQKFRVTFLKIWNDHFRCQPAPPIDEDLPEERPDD

Q: With `Cc1cnc2ccc(-c3nc(C(=O)NCC4CCCCN4C)c(N)nc3-c3ncco3)cn12` (single isomer, unassigned; isomer 2) [Example 125, 3-amino-6-(3-methylimidazo[1,2-a]pyridin-6-yl)-N-((1-methylpiperidin-2-yl)methyl)-5-(oxazol-2-yl)pyrazine-2-carboxamide (isomer 2)] as the compound, how does the IC50 read?
A: Its IC50 is 10000 nM.
